According to US9737075B2, “Synergistic benzoxaborole-containing anti-fungicidal composition” (The Penn State Research Foundation, priority 2015, dated 2017):
In brackets after ≈: the same amount, converted by molar mass. Read-outs that look alike come from different tables or passages of the source.

Legend:
Assay type in all cases: cell-based
Fusarium graminearum = assay: microbe, parasite or virus in culture; details: for MIC: 72 h, read-out: Independent MIC
Phytophthora pini = assay: Broth microdilution MIC of individual antifungals; details: individual antifungal, 25% PDB, about 25° C., 72 hours, range over N independent triplicate studies
Alternaria solani = assay: Broth microdilution MIC of individual antifungals; details: for MIC: read-out: Independent MIC
Aspergillus fumigatus = assay: Broth microdilution MIC of individual antifungals; details: for MIC: read-out: Independent MIC
Penicillium chrysogenum = assay: Broth microdilution MIC of individual antifungals; details: individual antifungal, 25% PDB, about 25° C., 72 hours, range over N independent triplicate studies
Botrytis cinerea 10-1728 = assay: Broth microdilution MIC of individual antifungals; details: for MIC: read-out: Independent MIC
[1] = test system: Mycosphaerella zeae-maydis; assay: Broth microdilution MIC of individual antifungals; details: individual antifungal, 25% PDB, about 25° C., 72 hours, range over N independent triplicate studies; for MIC: Didymella maydis
Mucor sp. = assay: Broth microdilution MIC of individual antifungals; details: individual antifungal, 25% PDB, about 25° C., 72 hours, range over N independent triplicate studies
Pythium aphanodermatum = assay: Broth microdilution MIC of individual antifungals; details: individual antifungal, 25% PDB, about 25° C., 72 hours, range over N independent triplicate studies
Botrytis cinerea B17 = assay: Broth microdilution MIC of individual antifungals; details: Botrytis cinerea B17, individual antifungal, 25% PDB, about 25° C., 72 hours, range over N independent triplicate studies; for MIC: read-out: Independent MIC
Stachybotrys chartarum = assay: Broth microdilution MIC of individual antifungals; details: individual antifungal, 25% PDB, about 25° C., 72 hours, range over N independent triplicate studies; for MIC: read-out: Independent MIC
Aspergillus flavus = assay: Broth microdilution MIC of individual antifungals; details: for MIC: read-out: Independent MIC
Rhizopus sp. = assay: Broth microdilution MIC of individual antifungals; details: Rhizopus sp., individual antifungal, 25% PDB, about 25° C., 72 hours, range over N independent triplicate studies; for MIC: Rhizopus, 72 h, read-out: Independent MIC
[2] = test system: Fusarium solani f. sp. pisi (MP VI); assay: Broth microdilution MIC of individual antifungals; details: Fusarium solani f. sp. pisi (MP VI), individual antifungal, 25% PDB, about 25° C., 72 hours, range over N independent triplicate studies
Aspergillus niger = assay: Broth microdilution MIC of individual antifungals; details: individual antifungal, 25% PDB, about 25° C., 72 hours, range over N independent triplicate studies; for MIC: read-out: Independent MIC
Aureobasidium pullulans = assay: Broth microdilution MIC of individual antifungals; details: individual antifungal, 25% PDB, about 25° C., 72 hours, range over N independent triplicate studies, read-out: Independent MIC
Sclerotinia homoeocarpa = assay: Broth microdilution MIC of individual antifungals; details: for MIC: Clarireedia homoeocarpa, read-out: Independent MIC
Fusarium verticillioides = assay: Broth microdilution MIC of individual antifungals; details: for MIC: read-out: Independent MIC
Fusarium oxysporum ST33 = assay: Broth microdilution MIC of individual antifungals; details: individual antifungal, 25% PDB, about 25° C., 72 hours, range over N independent triplicate studies
[3] = test system: Fusarium oxysporum f. sp. lycopersici; assay: Broth microdilution MIC of individual antifungals; details: individual antifungal, 25% PDB, about 25° C., 72 hours, range over N independent triplicate studies
Rhizoctonia solani = assay: Broth microdilution MIC of individual antifungals; details: for MIC: read-out: Independent MIC
[4] = test system: Colletotrichum orbiculare; assay: Broth microdilution MIC of individual antifungals; details: individual antifungal, 25% PDB, about 25° C., 72 hours, range over N independent triplicate studies; for MIC: read-out: Independent MIC
Candida albicans = assay: Broth microdilution MIC of individual antifungals; details: individual antifungal, 25% PDB, about 25° C., 72 hours, range over N independent triplicate studies
Magnaporthe grisea = assay: microbe, parasite or virus in culture; details: for MIC: Pyricularia oryzae, 72 h, read-out: Independent MIC
[5] = individual antifungal, 25% PDB, about 25° C., 72 hours, range over N independent triplicate studies
[6] = Botrytis cinerea 10-1728, individual antifungal, 25% PDB, about 25° C., 72 hours, range over N independent triplicate studies
[7] = 101728, Botrytis cinerea 10-1728, individual antifungal, 25% PDB, about 25° C., 72 hours, range over N independent triplicate studies
[8] = Sclerotinia homoeocarpa, individual antifungal, 25% PDB, about 25° C., 72 hours, range over N independent triplicate studies

For `CO/C=C(/C(=O)OC)c1ccccc1Oc1cc(Oc2ccccc2C#N)ncn1` [Azoxystrobin, azoxystrobin], the “Independent MIC” value (Fusarium graminearum; Fusarium graminearum, individual antifungal, 25% PDB, about 25° C., 72 hours, range over N independent triplicate studies) was 400 µg/mL, the “Independent MIC” value (Phytophthora pini) was 100 µg/mL and the “Independent MIC” value (Alternaria solani; [5]) was 100 µg/mL. For the same compound, the “Independent MIC” value (Aspergillus fumigatus; [5]) was “(50-100) μg/mL”, the “Independent MIC” value (Penicillium chrysogenum) was “(0.39-1.5) μg/mL” and the “Independent MIC” value (Botrytis cinerea 10-1728; [6]) was “(110-400) μg/mL”. The “Independent MIC” value [1] was 20 µg/mL, the “Independent MIC” value (Mucor sp.) was 200 µg/mL and the “Independent MIC” value (Pythium aphanodermatum) was 6.25 µg/mL. For the same compound, the “Independent MIC” value (Botrytis cinerea B17) was “(12.5-25)^ μg/mL” and the “Independent MIC” value (Stachybotrys chartarum) was “(25-50) μg/mL”.

`Nc1ccc2c(c1)COB2O` [B2, 5-Amino-1,3-dihydro-2,1-benzoxaborol-1-ol] was tested, and the MIC (Aspergillus flavus; [5]) was greater than 32 µg/mL, the MIC (Rhizopus sp.) was greater than 32 µg/mL and the MIC ([2]; read-out: Independent MIC) was greater than 32 µg/mL. The MIC (Alternaria solani; [5]) was greater than 32 µg/mL, the MIC (Aspergillus fumigatus; [5]) was greater than 32 µg/mL and the MIC (Aspergillus niger) was greater than 32 µg/mL. It also gave an MIC (Botrytis cinerea 10-1728; [7]) greater than 32 µg/mL, an MIC [1] greater than 32 µg/mL and an MIC (Mucor sp.) greater than 32 µg/mL. It also gave an MIC (Aureobasidium pullulans) greater than 32 µg/mL, an MIC (Sclerotinia homoeocarpa; [8]) greater than 32 µg/mL and an MIC (Botrytis cinerea B17) greater than 32 µg/mL. For the same compound, the MIC (Stachybotrys chartarum) was greater than 32 µg/mL, the MIC (Fusarium verticillioides; [5]) was greater than 32 µg/mL and the MIC (Fusarium oxysporum ST33) was greater than 32 µg/mL. The MIC [3] was greater than 32 µg/mL.

In the case of `Cc1ccc(-c2c(Cl)nc(C#N)n2S(=O)(=O)N(C)C)cc1` [Cyazofamid, cyazofamid], the MIC (Rhizoctonia solani; [5]) is reported as 50 to 100 µg/mL, the MIC [4] is reported as 50 to 100 µg/mL and the MIC (Fusarium graminearum; Fusarium graminearum) is reported as 100 µg/mL (≈ 308 µM). For the same compound, the MIC (Botrytis cinerea 10-1728; [7]) was 200 to 400 µg/mL, the MIC [1] was 100 µg/mL and the MIC (Sclerotinia homoeocarpa; [8]) was 100 µg/mL. For the same compound, the MIC (Fusarium verticillioides; [5]) was 200 µg/mL.

Work on `CC(C1CC1)C(O)(Cn1cncn1)c1ccc(Cl)cc1` (stereo not drawn) [Cyproconazole, cyproconazole] yielded an MIC (Rhizoctonia solani; [5]) of 6.25 to 12.5 µg/mL, an MIC (Aspergillus flavus; [5]) of 50 to 100 µg/mL and an MIC [4] of 6.25 to 12.5 µg/mL. For the same compound, the MIC (Rhizopus sp.) was 12.5 to 50 µg/mL, the MIC (Aspergillus fumigatus; [5]) was 12.5 to 25 µg/mL and the MIC (Penicillium chrysogenum; read-out: Independent MIC) was 100 µg/mL. The MIC (Aspergillus niger) was 25 µg/mL, the MIC (Botrytis cinerea 10-1728; [7]) was 0.78 to 2 µg/mL and the MIC [1] was 3.12 to 6 µg/mL. For the same compound, the MIC (Mucor sp.) was 100 to 200 µg/mL, the MIC (Sclerotinia homoeocarpa; [8]) was 1.56 to 3.12 µg/mL and the MIC (Candida albicans; read-out: Independent MIC) was 100 to 400 µg/mL. It also gave an MIC (Fusarium verticillioides; [5]) of 3 to 3.12 µg/mL.

`CCOP(=O)(Sc1ccccc1)Sc1ccccc1` [Edifenphos, edifenphos] was tested, and the MIC (Rhizoctonia solani; 72 h) was 200 to 400 µg/mL, the MIC (Phytophthora pini) was 100 µg/mL and the MIC (Alternaria solani; 72 h) was 200 µg/mL. For the same compound, the MIC (Aspergillus fumigatus; 72 h) was 200 µg/mL, the MIC (Botrytis cinerea 10-1728; Botrytis cinerea, 101728, 72 h) was 100 to 200 µg/mL and the MIC [1] was 200 to 400 µg/mL. For the same compound, the MIC (Mucor sp.) was 50 to 100 µg/mL, the MIC (Sclerotinia homoeocarpa; 72 h) was 3.12 to 6.25 µg/mL and the MIC (Magnaporthe grisea) was 6.25 µg/mL (≈ 20.1 µM). It also gave an MIC (Fusarium verticillioides; 72 h) of 200 to 400 µg/mL.

Work on `CC1(C(=O)Nc2ccc(O)c(Cl)c2Cl)CCCCC1` [Fenhexamid, fenhexamid] yielded an MIC (Aspergillus flavus; 72 h) of 3.12 to 6.25 µg/mL, an MIC [4] of 100 to 200 µg/mL and an MIC (Fusarium graminearum; Fusarium graminearum) of 25 to 50 µg/mL (≈ 82.7 to 165 µM). The MIC (Phytophthora pini) was 50 µg/mL, the MIC (Alternaria solani; [5]) was 100 to 200 µg/mL and the MIC (Aspergillus fumigatus; [5]) was 400 µg/mL. For the same compound, the MIC (Botrytis cinerea 10-1728; [7]) was 200 µg/mL, the MIC [1] was 100 to 200 µg/mL and the MIC (Mucor sp.) was 100 µg/mL. For the same compound, the MIC (Aureobasidium pullulans) was 100 µg/mL, the MIC (Pythium aphanodermatum) was 0.78 to 0.8 µg/mL and the MIC (Sclerotinia homoeocarpa; [8]) was 64 µg/mL. The MIC (Magnaporthe grisea) was 3.12 µg/mL (≈ 10.3 µM), the MIC (Botrytis cinerea B17) was 4 µg/mL and the MIC (Stachybotrys chartarum) was 12.5 µg/mL.

With `[Cl][Sn]([c]1ccccc1)([c]1ccccc1)[c]1ccccc1` [Fentin Chloride, fentin chloride] the “Independent MIC” value (Rhizoctonia solani; [5]) was “(12.5-25)^ μg/mL”, the “Independent MIC” value (Aspergillus flavus; [5]) was “(0.78-1) μg/mL” and the “Independent MIC” value [4] was 1.56 µg/mL. The “Independent MIC” value (Fusarium graminearum) was “(50-200) μg/mL”, the “Independent MIC” value (Rhizopus sp.) was “(0.39-0.78) μg/mL” and the “Independent MIC” value [2] was “(0.78-3.12) μg/mL”. The “Independent MIC” value (Phytophthora pini) was 0.098 µg/mL, the “Independent MIC” value (Alternaria solani; [5]) was “(10-12.5) μg/mL” and the “Independent MIC” value (Aspergillus fumigatus; [5]) was 0.78 µg/mL. The “Independent MIC” value (Penicillium chrysogenum) was “(0.1-0.2) μg/mL”, the “Independent MIC” value (Aspergillus niger) was “(0.78-1) μg/mL” and the “Independent MIC” value (Botrytis cinerea 10-1728; [6]) was “(50-100) μg/mL”. For the same compound, the “Independent MIC” value [1] was 50 µg/mL, the “Independent MIC” value (Mucor sp.) was “(1-1.56) μg/mL” and the “Independent MIC” value (Sclerotinia homoeocarpa; [8]) was 12.5 µg/mL. The “Independent MIC” value (Magnaporthe grisea) was 1.25 µg/mL, the “Independent MIC” value (Candida albicans) was “(0.78-1.56) μg/mL” and the “Independent MIC” value (Fusarium verticillioides; [5]) was “(6.25-12.5) μg/mL”.
